Series [1] deals with 5‐LO. As to conditions: cited from earlier work.
For series [2], the target named is T1, 5‐LO (Homo sapiens, UniProt P09917).
T1 sequence (P09917 1-674): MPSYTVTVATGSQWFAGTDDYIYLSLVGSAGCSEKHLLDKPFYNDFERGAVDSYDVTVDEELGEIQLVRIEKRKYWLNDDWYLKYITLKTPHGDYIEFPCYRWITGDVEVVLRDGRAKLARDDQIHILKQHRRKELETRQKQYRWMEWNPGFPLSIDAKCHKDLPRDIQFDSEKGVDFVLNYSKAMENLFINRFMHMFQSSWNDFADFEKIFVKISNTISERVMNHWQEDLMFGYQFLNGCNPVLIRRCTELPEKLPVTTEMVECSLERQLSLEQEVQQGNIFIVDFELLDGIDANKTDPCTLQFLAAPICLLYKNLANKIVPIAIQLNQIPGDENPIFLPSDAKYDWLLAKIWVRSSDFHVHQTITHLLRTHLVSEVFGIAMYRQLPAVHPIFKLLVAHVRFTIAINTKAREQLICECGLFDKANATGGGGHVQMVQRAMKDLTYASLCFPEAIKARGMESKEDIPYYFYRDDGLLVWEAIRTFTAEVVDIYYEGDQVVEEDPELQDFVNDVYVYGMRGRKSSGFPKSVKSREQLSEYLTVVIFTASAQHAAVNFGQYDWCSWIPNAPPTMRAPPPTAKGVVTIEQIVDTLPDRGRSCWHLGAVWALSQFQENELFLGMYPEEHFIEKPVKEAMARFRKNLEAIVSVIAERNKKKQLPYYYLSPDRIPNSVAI
The series is described as follows: Biosynthesis of 5‐LO products in stimulated HEK293 cells expressing 5‐LO and FLAP. In kind it is cell-based. More on the design: expressed in transfected cells; host or cells: HEK293 cells (ATCC), stably transfected. The settings on record: 1 μmol/L, 5 min preincubation; 10 μmol/L A23187 + 10 μmol/L arachidonic acid 15 min. The protocol: HEK293 cells were obtained from ATCC (Manassas) and were cultured in Dulbecco’s Modified Eagle Medium (DMEM) supplemented with 10% fetal bovine serum. Cells were stably transfected with 5‐lipoxygenase and 5‐lipoxygenase activating protein (FLAP) as previously described.31
Transfected HEK293 cells were collected and resuspended in Hank's balanced salt solution (HBSS, Lonza) containing 1.6 mmol/L CaCl2 at a concentration of 5 × 10^5 cells/mL, and were preincubated with each compound at concentration of 1 µmol/L for 5 minutes at 37°C. Cells were then stimulated for 15 minutes at 37°C with the addition of 10 µmol/L calcium ionophore A23187 (Sigma‐Aldrich) and 10 µmol/L arachidonic acid (Cayman Chemical).28 Stimulations were stopped by adding 0.5 volume of cold CH3OH:CH3CN (1:1) containing 100 ng/mL of prostaglandin B2 (PGB2) as internal standard. Samples were stored at −20°C and analyzed for 5‐LO products using reversed‐phase high‐performance liquid chromatography (RP‐HPLC) as described previously.32
Figure 2 The structures of the tested compounds (A) and their effects on the biosynthesis of 5‐LO products in transfected HEK293 cells (B). HEK293 cells expressing 5‐LO and FLAP were incubated in presence of the indicated compounds (1 μmol/L) or their diluent (Control, 0.1% DMSO) for 5 minutes, followed by the addition of 10 μmol/L calcium ionophore A23187 and 10 μmol/L arachidonic acid for 15 minutes. Reactions were then stopped, and samples were processed for analysis of 5‐LO products using RP‐HPLC. Total 5‐LO products measured represent the sum of LTB4, its trans isomers and 5‐hydroxyeicosatetraenoic acid. Data are expressed as means ± SEM of at least three independent experiments. *Difference from control as determined using one‐way ANOVA with Dunnett's multiple comparison test (P < .05)

Series [3] deals with HepaRG cells. The series can be described thus: Residual inhibition of 5‐LO product biosynthesis in blood after incubation with HepaRG cells. In kind it is in vitro ADME, human. As to conditions: 50 µmol/L with HepaRG cells, after 60 minutes; medium added to blood, zymosan, LTB4. The protocol: (§1) Differentiated HepaRG cells, plated in 24 well plates, were washed with hepatocyte suspension medium (Williams E‐medium without phenol red, supplemented with 2 mmol/L Glutamax and […] HEPES) before addition of hepatocyte suspension medium (250 µL/well) containing (30 or 50 µmol/L) of the test compounds or their diluent. Cells were then incubated for 7.5, 15, 30, 60 or 90 minutes at 37°C after which the medium was removed.
In experiments where the inhibitory capacity of test compounds was to be determined after incubation with HepaRG cells, 125 µL of the hepatocyte suspension medium containing test compounds that had been collected at different time points from HepaRG cultures was added to 1 mL of heparinized blood. After a 5 minutes of preincubation, blood was then stimulated with opsonized zymosan and processed for HPLC analysis of 5‐LO metabolites as described above.
Figure 6 Stability of the test compounds for the inhibition of the biosynthesis of 5‐LO products following incubation with HepaRG cells. HepaRG cells were incubated with […] of hepatocyte suspension medium containing 50 µmol/L of test compounds for the indicated times at 37°C. Hepatocyte suspension medium (125 µL) was then removed and added to 1 mL of blood that was then incubated for 5 minutes and then stimulated with opsonized zymosan (4 mg/mL) for 30 minutes at 37°C. Blood was then centrifuged and plasma was collected and added to 1.2 mL of CH3OH:CH3CN (1:1). Samples were processed for analysis using RP‐HPLC for LTB4 quantification. Data are expressed as means ± SEM of at least three independent experiments. *Difference from time = 0, as determined using One‐way ANOVA with Dunnett's multiple comparison test (P < .05)

Series [4] concerns the target T1, 5‐LO. The series can be described thus: Ex vivo whole blood stimulation with opsonized zymosan, 5‐LO products. More on the design: endogenous in cells; host or cells: human polymorphonuclear leukocytes isolated from heparinized blood. The series is classed as cell-based. As to conditions: 5‐LO product biosynthesis in whole blood, mean (95% confidence interval). The protocol: Blood was collected in tubes containing heparin as anticoagulant. Test compounds or their diluent control (DMSO, 0.1%) were added to 1 mL of heparinized blood at the indicated concentrations and incubated for 5 minutes in a water bath at 37°C. Stimulation was initiated with the addition of 125 μL of 40 mg/mL of opsonized zymosan, samples were then gently vortexed and incubated at 37°C for 30 minutes.34 Samples were then centrifuged at 960g for 10 minutes at 4°C, plasma was removed and added to tubes containing 4 volumes of CH3OH:CH3CN (1:1) containing 100 ng/mL of PGB2 as internal standard. Samples were stored overnight at −20°C, and then centrifuged at 3300g for 10 minutes. Samples were then purified on C18 cartridges, were eluted with CH3OH, dried under nitrogen, resuspended in 46% of CH3OH:CH3CN (1:1), and analyzed using RP‐HPLC as described above.

Series [5] deals with HepaRG cells. The series is described as follows: Kinetics of test compound disappearance in HepaRG cell culture (HPLC). The series is classed as in vitro ADME, human. As to conditions: 30 µmol/L, 37°C; mean (95% confidence interval), four experiments. The method, then: Undifferentiated cryopreserved HepaRG cells (BioPredic International) were seeded in 12 or 24 well plates at 1.1 × 10^5 and 0.55 × 10^5 cells per well, respectively. Cells were cultured for 14 days in Williams E‐medium supplemented with 1% penicillin‐streptomycin (10 000 U/mL), 10% fœtal bovine serum (FBS), 50 mg/L hydrocortisone hemisuccinate, 5 mg/L insulin and 2 mmol/L Glutamax, and the medium was renewed every 2‐3 days. After 14 days, the culture medium was replaced by the same formulation as above supplemented with 2% dimethyl sulfoxide (DMSO) to induce differentiation. Cells were considered differentiated and ready for experiments after 14 days of differentiation (28 days after seeding).
as §1
In experiments where the test compounds incubated with HepaRG cells were to be measured, the cell layer was washed with 250 µL of hepatocyte suspension medium which was then pooled with the first medium. The mixture was then added to 250 µL of ice cold CH3OH:CH3CN (1:1, vol:vol) containing 10 µmol/L of phenethyl 3,4,5‐trimethoxycinnamate as an internal standard. The resulting solution was frozen at −80°C for 2 hour to precipitate any dissolved proteins, centrifuged at 1800g and the supernatant transferred to vials and stored at −20°C until HPLC analysis.
Figure 5 Kinetics of test compound disappearance in HepaRG cell culture. (A) HepaRG cells were incubated in 250 µL of hepatocyte suspension medium containing 30 µmol/L of test compounds for the indicated times at 37°C. Supernatants were removed and added to 250 µL of ice cold CH3OH:CH3CN (1:1 vol:vol) containing 10 µmol/L of phenethyl 3,4,5‐trimethoxycinnamate as an internal standard. The cell layer was washed with 250 µL of hepatocyte suspension medium and added to the above mixture. Samples were centrifuged at 1900g and the supernatants were collected for HPLC analysis as described in the Methods. Values are means ± SEM. (B) Calculated half‐lives of the test compounds in HepaRG cell cultures. Values are means (95% confidence interval). All data are from four independent experiments TEXT PRINTED IN THE PICTURE: (B) CAPE (2): Half-life (Minutes): 4.70 (4.42 - 5.02) | (B) 7: Half-life (Minutes): 6.42 (5.72 -7.31) | (B) 5: Half-life (Minutes): 3.71 (3.67-3.74) | (B) 8: Half-life (Minutes): 6.48 (6.01-7.04) | (B) 9: Half-life (Minutes): 4.38 (4.23 - 4.55) | (B) 10: Half-life (Minutes): 11.32 (10.21- 12.71)

Series [6] has as its target T1, 5‐LO. The series is described as follows: Biosynthesis of 5‐LO products in thapsigargin‐stimulated human PMNL. In kind it is cell-based. More on the design: endogenous in cells; host or cells: human polymorphonuclear leukocytes isolated from heparinized blood. The settings on record: 5‐LO product biosynthesis in human PMNL; mean (95% confidence interval). The protocol: Heparinized blood (see Ethics statement) was collected, centrifuged at 200g for 10 minutes to collect plasma, and erythrocytes were sedimented in dextran. PMNL were obtained after centrifugation on a lymphocyte separation medium cushion (density, 1.077 g/mL) (Wisent) at 900 g for 20 minutes, followed by hypotonic lysis to remove residual erythrocytes.33 PMNL were counted and resuspended at 10^7 cells/mL in HBSS supplemented with 1.6 mmol/L CaCl2 and 0.3 U/mL adenosine deaminase (Sigma‐Aldrich). PMNL were preincubated with the test compounds or their diluent (0.1% DMSO) for 5 minutes at 37°C and were then stimulated with 1 µmol/L thapsigargin (Sigma‐Aldrich) for 15 minutes at 37°C.27 Reactions were stopped by adding two volumes of CH3OH:CH3CN (1:1) containing the internal standard PGB2 (100 ng/mL), and samples were processed for RP‐HPLC analysis of 5‐LO products.
(A) The structures of CAPE (2) and its analogues investigated in this study. (B) Isolated human PMNL were incubated in presence of test compounds (1 μmol/L) or their diluent (Control, 0.1% DMSO) for 5 minutes. PMNL were stimulated with 1 μmol/L of thapsigargin for 15 minutes at 37°C. The stimulation was then stopped, and samples were processed for analysis of 5‐LO products using RP‐HPLC. Total 5‐LO products measured represent LTB4, its trans isomers, 20‐OH‐LTB4, 20‐COOH‐LTB4 and 5‐hydroxyeicosatetraenoic acid. Data are expressed as means ± SEM of at least three independent experiments. *Difference from control, as determined using one‐way ANOVA with Dunnett's multiple comparison test (P < .05)

“Also recorded” adds a separate entry of the source.

`O=C(C=Cc1ccc(O)c(O)c1)NCCc1ccccc1` [amide analogue of CAPE]: the “Inhibition of LT biosynthesis and 5‐LO activity” value in series [1] was “reduced potency compared to CAPE”. For the compound `O=C(C=Cc1ccccc1)OCCc1ccccc1` [cinnamic acid phenethyl ester], the “Inhibition of LT biosynthesis” value in series [1] (at concentrations up to 10 µmol/L) is recorded as “do not inhibit LT biosynthesis”. On to `O=C(/C=C/c1ccc(O)cc1O)OCCc1ccccc1` [compound 4], for which the “Inhibition of biosynthesis of 5‐LO products in transfected HEK293 cells” value (“Inhibition … in transfected HEK293 cells” for short) in series [2] is “without measurable effect; also recorded: without inhibitory activity”. For `CC(c1cc2ccccc2s1)N(O)C(N)=O` (stereo not shown) [Zileuton (1), Zileuton, reference compound], in series [3], the “Inhibitory activity against 5‐LO product biosynthesis after incubation with HepaRG cells” value is “steady manner over time”. Besides, in series [2], the “Inhibition … in transfected HEK293 cells” value is reported as “less effective than CAPE (2)”. Consider `O=C(O)/C=C/c1ccc(O)c(O)c1` [caffeic acid], for which the “Inhibition of LT biosynthesis and 5‐LO activity” value in series [1] is given as “poor 5‐LO inhibitor”. As for `O=C(CCc1ccc(O)c(O)c1)OCCc1ccccc1` [saturated form of CAPE (2)], in series [1], the “Inhibition of 5‐LO product biosynthesis” value is “as effective”. `COc1cc(/C=C/C(=O)OCCc2ccccc2)cc(OC)c1O` [compound 9, sinapic acid phenethylester]: the IC50 in series [4] is 1.91 µM; in series [6] it was 0.29 µM. Besides, in series [5], the “Half-life in HepaRG cell cultures” value was 4.38 (4.23 - 4.55) Minutes. For the same compound, in series [3], the “Inhibitory activity against 5‐LO product biosynthesis after incubation with HepaRG cells” value is listed as “lost all their inhibitory activity”.

In the case of `O=C(/C=C/c1cccc(O)c1O)OCCc1ccccc1` [compound 3], the “Inhibition … in transfected HEK293 cells” value in series [2] is given as “very good inhibitory activity”. On the same count and under the same terms, for `O=C(/C=C/c1cc(O)cc(O)c1)OCCc1ccccc1` [compound 6] the value was “without measurable effect; also recorded: without inhibitory activity”.

Source of the values: PMC6743424, “Phenolic acid phenethylesters and their corresponding ketones: Inhibition of 5‐lipoxygenase and stability in human blood and HepaRG cells” (Pharmacology Research & Perspectives, 2019).
